The nature of the series: solvent given as SMILES.

These results are taken from the Deep4Chem optical property database.

Several values for one entry are separate records, joined by “and”; a condition that tells them apart may be missing. Equal entries are not always repeated.

`CC1=[N+]2C(=C(c3ccccc3)c3ccc(/C=C/c4ccc(C(=C(c5ccccc5)c5ccccc5)c5ccccc5)cc4)n3[B-]2(F)F)C=C1` showed an emission maximum (in C1CCOC1) of 610 nm.
For the compound `CC(C)(C)c1cc(-c2c3cccc4c5cccc6c(-c7cc(C(C)(C)C)cc(C(C)(C)C)c7)c7cccc8c9cccc2c9c(c34)c(c65)c78)cc(C(C)(C)C)c1`, where the note is “in Cc1ccccc1”, the emission maximum is 701 nm.
In the case of `CC1=[N+]2C(=C(c3ccc(N4CCCCC4)cc3)c3ccc(C)n3[B-]2(F)F)C=C1`, the emission maximum by setting is: (in C1CCCCC1) 519 nm; (in C1CCOC1) 527 nm and 514 nm; (in CC#N) 519 nm; (in CC(=O)C(C)(C)C) 523 nm; (in CC(C)=O) 517 nm; (in CCCCCC) 520 nm. The emission maximum turned out to be 518 nm (in CCOC(C)=O), 518 nm (in CO), 593 nm (in Cc1ccccc1) and 527 nm (in ClC(Cl)Cl).
In the case of `O=S(=O)([O-])CCCCN1C=C/C(=C/C=C/C=C/c2cc[n+](CCCCS(=O)(=O)[O-])c3ccccc23)c2ccccc21`, for the setting “in CO”, the emission maximum was 830 nm.
`Cc1cc(C)cc(NC(=O)c2sc(Br)nc2C)c1`: the emission maximum amounted to 413.2 nm (in C1CCOC1); 399 nm (in CC#N); 400.6 nm (in CCCCCC); 405.5 nm (in CCOC(C)=O); 398.2 nm (in CN(C)C=O); 402 nm (in CO). Besides, the emission maximum by setting is: (in CS(C)=O) 402.5 nm; (in ClC(Cl)Cl) 411.5 nm.
In the case of `Cc1cc(O)c(C(C)C)cc1/N=C/c1ccc(O)cc1`, the emission maximum runs as follows: (in C1CCCCC1) 400 nm; (in C1CCOC1) 406 nm; (in C1COCCO1) 405 nm; (in CC#N) 411 nm; (in CC(C)(C)O) 410 nm; (in CC(C)O) 412 nm. In addition, the emission maximum was determined as 399 nm (in CCCCCC); 414 nm (in CCCCO); 414 nm (in CCO); 405 nm (in CCOC(C)=O); 409 nm (in CN(C)C=O); 416 nm (in CO). The emission maximum was 415 nm (in CS(C)=O); 401 nm (in ClC(Cl)Cl); 412 nm (in ClCCl); 452 nm (in O); 421 nm (in OCCO).
`CC(C)(C)Nc1cc2sc3cc(NC(C)(C)C)c(F)cc3c(=O)c2cc1F` returned an emission maximum (in CCO) of 432 nm.
`CC1=CC(C)=[N+]2C1=C(c1ccc(Br)cc1)c1c(C)cc(/C=C/c3ccc[nH]3)n1[B-]2(F)F`: the emission maximum (in ClCCl) is 613 nm.
As for `C=CCOc1nnc(OCCC(F)(F)C(F)(F)C(F)(F)C(F)(F)C(F)(F)C(F)(F)F)nn1`, the emission maximum runs as follows: (in ClCCl) 573 nm; (in OCC(F)(F)F) 562 nm.
Under “in ClCCl”, `COc1ccc(-c2cc3c(ccc4sc5ccc6sc(-c7ccc(C(C)=O)cc7)cc6c5c43)s2)cc1` showed an emission maximum of 477 nm.
In the case of `CN1CCN(CCCN2c3ccccc3Sc3ccc(Cl)cc32)CC1`, the emission maximum stood at 449 nm (in CC#N), 449 nm (in CO) and 457 nm (in O).
With `c1ccc(-c2cc(-c3ccc(N(c4ccccc4)c4ccccc4)cc3)cc(-c3ccccc3)n2)cc1`, the emission maximum (in CC#N) was 489 nm; the emission maximum (in CCCCCC) stood at 393 nm; the emission maximum (in CCO) was determined as 505 nm; the emission maximum (in CO) worked out at 524 nm; the emission maximum (in ClCCl) was determined as 476 nm.
For the compound `N#Cc1c(-n2c3ccccc3c3ccccc32)c(-n2c3ccccc3c3ccccc32)c(-n2c3ccccc3c3ccccc32)c(-n2c3ccccc3c3ccccc32)c1-n1c2ccccc2c2ccccc21`, the emission maximum was 451.82 nm (in CCCCCC); 515.31 nm (in CCO); 464 nm and 470 nm (in Cc1ccccc1); 497.22 nm (in ClCCl); 486 nm (in c1cc(-c2cccc(-n3c4ccccc4c4ccccc43)c2)cc(-n2c3ccccc3c3ccccc32)c1).
Compound `COCCN(CCOC)c1ccc(/C=C/c2sc3c4nc(C)sc4ccc3[n+]2C)cc1` came in with an emission maximum (in CO) of 601 nm and an emission maximum (in ClC(Cl)Cl) of 601 nm.
On to `CN1/C(=C\C=C\C2=C3C=CC(c4ccccc4)=[N+]3[B-](F)(F)n3c2ccc3-c2ccccc2)Sc2ccccc21`, for which the emission maximum (in CC#N) is recorded as 727 nm.
As for `CCOC(=O)c1c2c3c(ccc(OC)c3c3cc4ccccc4cc13)N(C)C2=O`, the emission maximum (in CC#N) worked out at 413 nm.
`C(#Cc1ccccc1)C(C#Cc1ccccc1)=Cc1ccc(C=C(C#Cc2ccccc2)C#Cc2ccccc2)cc1` yielded an emission maximum (in ClC(Cl)Cl) of 475 nm.
With `CN(C)c1ccc(-c2ccc(-c3ccc(N(C)C)cc3)c3nc(-c4ccccc4)c(-c4ccccc4)nc23)cc1`, the emission maximum is, setting by setting: (in C1CCOC1) 601 nm; (in CC#N) 646 nm; (in CCCCCC) 538 nm; (in CN(C)C=O) 648 nm; (in Cc1ccccc1) 577 nm; (in ClC(Cl)Cl) 597 nm.
Take `CC(C)(C)c1ccc2c(c1)c1ncncc1c1c3ccccc3sc21`: where the note is “in ClCCl”, the emission maximum is given as 414 nm.
As for `COC(=O)/C(C#N)=c1\s/c(=c2/s/c(=C(/C#N)C(=O)OC)c3cc(-c4ccccc4)sc23)c2sc(-c3ccccc3)cc12`, the emission maximum (in Cc1ccccc1) came out at 640 nm.
Same read-out and setting: to `CCC1(CC)c2ccccc2-c2ccc(C#Cc3cc(C#Cc4ccc5c(c4)C(CC)(CC)c4ccccc4-5)c4ccc5c(C#Cc6ccc7c(c6)C(CC)(CC)c6ccccc6-7)cc(C#Cc6ccc7c(c6)C(CC)(CC)c6ccccc6-7)c6ccc3c4c65)cc21` belongs 549 nm.
`COc1cc2c(cc1-c1ccc(N(C)C)cc1)Cc1c3c(c4c(c1-2)-c1cc(OC)c(-c2ccc(N(C)C)cc2)cc1C4)C(=O)N(CCC(C)C)C3=O` yielded an emission maximum (in C1CCOC1) of 593 nm.
`CC[N+]1(CC)CN2C(=N1)C(C(=O)O)=Cc1cc(OC)c(OC)cc12` gave an emission maximum (in O) of 472 nm.
In the case of `O=P1(c2ccccc2)c2cccc3c4c5ccccc5c5ccccc5c4c4ccc1n4c23` (stereo not given), where the note is “in ClCCl”, the emission maximum is given as 490 nm.
Take `COc1ccc2c(c1)[n+]([O-])nc(N)[n+]2[O-]`: the emission maximum runs as follows: (in CC#N) 510 nm; (in O) 542 nm.
For the compound `c1ccc(-n2c(-c3ccc(-c4ccc5c(c4)C4(c6ccccc6-5)c5ccccc5-c5ccc(-c6ccc(-c7nc8ccccc8n7-c7ccccc7)cc6)c6cccc4c56)cc3)nc3ccccc32)cc1` (stereo not given), under “in ClC(Cl)Cl”, the emission maximum amounted to 440 nm.
For the compound `CCC12C(=C3C(=C4c5ccc(-c6ccc(CO)cc6)cc5S(=O)(=O)C41CC)C(F)(F)C(F)(F)C3(F)F)c1ccc(-c3ccc(CO)cc3)cc1S2(=O)=O` (stereo not given), the emission maximum (in C1COCCO1) was determined as 538.57 nm.
For the setting “in ClCCl”, `CN(C)c1ccc(C2=CC3=C(c4ccc(C=O)cc4)[C@H]4c5ccccc5[C@]3(S2)c2ccccc24)cc1` came in with an emission maximum of 616 nm.
In the case of `CCCCCCCCCCOc1cc(OCCCCCCCCCC)cc(C2=C3C(C)=CC(/C=C/c4ccc(OC)cc4)=[N+]3[B-](F)(F)n3c(/C=C/c4ccc(OC)cc4)cc(C=Cc4ccc(OC)cc4)c32)c1`, the emission maximum (in ClC(Cl)Cl) stood at 682 nm.
Consider `CCOC(=O)c1c2c3c(ccc(C)c3c3cc4ccccc4cc13)N(C)C2=O`, for which the emission maximum (in CC#N) was 413 nm.
Consider `CO[B-]1(OC)n2c(C)cc(C)c2C(c2ccc(I)cc2)=C2C(C)=CC(C)=[N+]21`, for which, for the setting “in ClC(Cl)Cl”, the emission maximum was 517.6 nm.
For `COc1ccccc1-c1nc(-c2ccccc2)c(-c2ccccc2)[nH]1`, the emission maximum (in CO) is 375 nm.
As to `COc1ccc(C2=CC(c3ccc4cc(N(C)C)ccc4c3)=[O+][B-](F)(F)O2)cc1`, the emission maximum is, setting by setting: (in C1CCOC1) 618 nm; (in CC#N) 681 nm; (in CC(C)=O) 660 nm; (in CS(C)=O) 698 nm; (in Cc1ccccc1) 555 nm; (in ClC(Cl)Cl) 596 nm. In addition, the emission maximum (in ClCCl) came to 631 nm.
`CC1(C)Nc2cc3nc4cc(Cl)c(Cl)cc4nc3cc2N1`: the emission maximum (in CCO) is 506 nm.
Take `F[B-]1(F)n2cccc2C(c2ccccc2)=C2C=CC=[N+]21`: the emission maximum turned out to be 521 nm (in Cc1ccccc1) and 522 nm (in ClCCl).
`Cn1ncc2c3c(C#N)c4c5ccccc5n(C)c4nc3ccc21` yielded an emission maximum (in CCOC(C)=O) of 478 nm.
For the setting “in ClC(Cl)Cl”, `Cc1cccc(C2=Cc3c4ccccc4cc[n+]3[B-](F)(F)O2)c1` came in with an emission maximum of 464.8 nm.
Consider `CCCCCCc1cc2c3c(c1)c(=C1c4ccccc4S(=O)(=O)c4ccccc41)c1cc(CCCCCC)cc4c1N3c1c(cc(CCCCCC)cc1c4=C1c3ccccc3S(=O)(=O)c3ccccc31)c2=C1c2ccccc2S(=O)(=O)c2ccccc21`, for which, where the note is “in ClCCl”, the emission maximum worked out at 528 nm.
In the case of `Cc1cc(C)c(C)c(B(c2c(C)c(C)cc(C)c2C)c2c(C)c(C)c(N3c4ccccc4Oc4ccccc43)c(C)c2C)c1C`, where the note is “in CC(C)(C)c1ccc(-n2c3ccc([Si](c4ccccc4)(c4ccccc4)c4ccccc4)cc3c3cc([Si](c4ccccc4)(c4ccccc4)c4ccccc4)ccc32)cc1”, the emission maximum amounted to 478 nm.
The compound `c1ccc(-c2cc3cc4ccccc4cc3p2-c2ccccc2)cc1` (stereo not given) came in with an emission maximum (in ClCCl) of 429 nm.
`CCCN1C(=O)c2c3c(c4c(c2C1=O)CCc1cc(-c2ccc(N(C)C)cc2)c(OC)cc1-4)-c1cc(OC)c(-c2ccc(N(C)C)cc2)cc1CC3`: the emission maximum (in C1CCCCC1) was determined as 511 nm; the emission maximum (in C1CCOC1) came to 602 nm; the emission maximum (in CCOC(C)=O) came to 598 nm; the emission maximum (in Cc1ccccc1) amounted to 548 nm; the emission maximum (in ClCCl) is 613 nm.
`COc1ccc(-c2nc(C(C)=O)c(C)o2)cc1`: the emission maximum reads like this: (in CC#N) 347 nm; (in CCO) 354 nm; (in CCOC(C)=O) 347 nm; (in CCOCC) 345 nm; (in ClCCl) 351 nm.
Take `c1ccc2[nH]c(-c3ccc(-c4ccc(-c5ccc(-c6nc7ccccc7[nH]6)cc5)cc4)cc3)nc2c1`: the emission maximum (in CN(C)C=O) was 409 nm.
Regarding `COc1ccc2cc(C#N)c(=N)oc2c1`, the emission maximum (in ClCCl) is 387 nm.
With `Oc1ccc(Br)cc1-c1nc2c(c3c1-c1ccccc1CC3)-c1ccccc1CC2`, the emission maximum (in ClCCl) was 421 nm.
